Experimental data reported in PMC6328008 (Journal of Enzyme Inhibition and Medicinal Chemistry, 2019).
“Also recorded” adds a separate entry of the source.

What was measured:
[1] = test system: Panc1 pancreatic cancer cells; experiment: Cancer cell line growth inhibition assay; type: cell-based, human; settings: for Inhibition of growth of Panc1 cells (in words): 3 days, concentrations up to 10 µM
[2] = test system: normal mobilised peripheral blood progenitor cells; settings: listed as NSAH; cited from earlier work

SMILES | Inhibition of growth of Panc1 cells (in words) [1] | further results
O=C1Nc2ccccc2/C1=N\NC(=O)c1ccccc1O [TP1, (E)-2-Hydroxy-N'-(2-oxoindolin-3-ylidene)benzohydrazide] | did not inhibit the growth | –
O=C(N/N=C/c1cc(-c2ccccc2)ccc1O)c1ccccc1O [TP2, (E)-2-Hydroxy-N'-((4-hydroxy-[1,1'-biphenyl]-3-yl)methylene)-benzohydrazide] | – | Fold decrease in potency in cells on removal of the methoxy (TP2, 3 vs TP5, 6) ([1]; Panc1): > 2 fold
O=C(N/N=C/c1cc(-c2ccsc2)ccc1O)c1ccccc1O [TP3, (E)-2-Hydroxy-N'-(2-hydroxy-5-(thiophen-3-yl)-benzylidene)-benzohydrazide] | – | Fold decrease in potency in cells on removal of the methoxy (TP2, 3 vs TP5, 6) ([1]; Panc1): > 2 fold
COc1ccc(-c2ccsc2)c(/C=N/NC(=O)c2ccccc2O)c1O [TP6, (E)-2-Hydroxy-N'-(2-hydroxy-3-methoxy-6-(thiophen-3-yl)benzylidene)-benzohydrazide] | – | Fold decrease in IC50 over lead compound NSAH (TP8) ([1]; Panc1): > 2 fold
Nc1ncnc2c1ncn2-c1ccc(/C=N/NC(=O)c2ccccc2O)cc1 [TP7, (E)-N'-(4–(6-amino-9H-purin-9-yl)benzylidene)-2-hydroxybenzohydrazide] | did not inhibit the growth | –
O=C(N/N=C/c1c(O)ccc2ccccc12)c1ccccc1O [TP8, (E)-2-Hydroxy-N'-((2-hydroxynaphthalen-1-yl)methylene)-benzohydrazide] | – | Toxicity against normal mobilised peripheral blood progenitor cells [2]: much less effective
COc1ccc(-c2cnc(-c3ccccc3O)s2)cc1 [TP9, 2–(5-(4-Methoxyphenyl)thiazol-2-yl)-phenol] | did not inhibit the growth; also recorded: ineffective | –
O=C(NNC(=O)c1c(O)ccc2ccccc12)c1cccnc1 [TP11, N'-(2-Hydroxy-1-naphthoyl)-nicotinohydrazide] | did not inhibit the growth | –
O=C(N/N=C/c1cccnc1)c1c(O)ccc2ccccc12 [TP12, (E)-2-Hydroxy-N'-(pyridin-3-ylmethylene)-1-naphthohydrazide] | did not inhibit the growth | –
O=C(NNC(=O)c1ccccc1O)c1cccnc1 [TP13, N'-(2-Hydroxybenzoyl)-nicotinohydrazide] | did not inhibit the growth | –
